The text below walks through data of patent US10125098B2, “Therapeutic compounds and methods of use thereof” (GENENTECH, INC., priority 2014, dated 2018).

One series has as its target T1, hNav1.7 (Homo sapiens, UniProt Q15858).
T1 construct: expressed in transfected cells
In words: Tritiated compound binding (LBA) to membranes from cells expressing hNav1.7 and the β1 subunit, competitive binding. Conditions: competitive binding vs 100 pM [3H]compound, 18 h, room temperature, membranes with hNav1.7 and β1 subunit. On the procedure: Tritiated Compound Binding to Membranes
Isolated from Cells that Heterologously Express hNav1.7 and the β1 Subunit
Preparation of membranes containing recombinantly expressed sodium channels: Frozen recombinant cell pellets were thawed on ice and diluted to 4 times the cell pellet weight with ice cold 50 mM Tris HCl, pH 7.4 buffer. The cell suspensions were homogenized on ice using a motorized glass dounce homogeniser. […] The supernatants were collected and centrifuged at 10000×g at 4° C. for 50 min. The pellets were then re-suspended in 100 mM NaCl, 20 mM Tris HCl, pH 7.4 buffer containing 1% v/v protease inhibitors (Calbiochem) and re-homogenized on ice. The homogenized membranes were then processed through a syringe equipped with a 26 gauge needle. Protein concentrations were determined by Bradford Assay and the membranes were stored at −80° C.
Saturation experiments. A representative compound of formula (I) having a methyl group was tritiated. Three tritiums were incorporated in place of methyl hydrogens to generate [^3H]compound. Binding of this radioligand was performed in 5 mL borosilicate glass test tubes at room temperature. Binding was initiated by adding membranes to increasing concentrations of [^3H]compound in 100 mM NaCl, 20 mM Tris HCl, pH 7.4 buffer containing 0.01% w/v bovine serum albumin (BSA) for 18 h. Non-specific binding was determined in the presence of 1 μM unlabeled compound. After 18 h, the reactants were filtered through GF/C glass fiber filters presoaked in 0.5% w/v polyethylene imine. […] [^3H]compound bound to filters was quantified by liquid scintillation counting.
Binding reactions were performed in 96-well polypropylene plates at room temperature for 18 h. In 360 μL, membranes were incubated with 100 pM [^3H]compound and increasing concentrations of Test Compound. Non-specific binding was defined in the presence of 1 μM unlabeled compound. Reactions were transferred and filtered through 96-well glass fiber/C filter plates presoaked with 0.5% polyethylene imine. […] Bound radioactivity was determined by liquid scintillation counting.
Data Analysis: For saturation experiments, non-specific binding was subtracted from total binding to provide specific binding and these values were recalculated in terms of pmol ligand bound per mg protein. Saturation curves were constructed and dissociation constants were calculated using the single site ligand binding model: Beq=(Bmax*X)/(X+Kd), where Beq is the amount of ligand bound at equilibrium, Bmax is the maximum receptor density, Kd is the dissociation constant for the ligand, and X is the free ligand concentration. For competition studies percent inhibition was determined and IC50 values were calculated using a 4 parameter logistic model (% inhibition=(A+((B−A)/(1+((x/C)^D)))) using XLfit, where A and B are the maximal and minimum inhibition respectively, C is the IC50 concentration and D is the (Hill) slope.

Another series has as its target T2, NaV1.5 (Homo sapiens, UniProt Q14524).
T2 construct: permanently transfected with an expression vector containing the full-length cDNA coding for the desired human sodium channel α-subunit; expressed in transfected cells; host or cells: HEK-293
Description: Patch voltage clamp electrophysiology assay (EP), NaV1.5. It is filed as cell-based. The settings on record: HEK-293 cells stably expressing NaV1.5 with β1 subunit, whole-cell patch clamp, membrane potential −60 mV (inactivated state). As for the experimental part:
(§1) The following patch voltage clamp electrophysiology studies were performed on representative compounds of the invention using human embryonic kidney cells (HEK), permanently transfected with an expression vector containing the full-length cDNA coding for the desired human sodium channel α-subunit, grown in culture media containing 10% FBS, 1% PSG, and 0.5 mg/mL G418 at 37° C. with 5% CO2. […] NaV1.7 and NaV1.5 cDNAs (NM_002977 and AC137587; SCN5A, respectively) were stably expressed in HEK-293 cells. The β1 subunit was coexpressed in both the NaV1.7 and NaV1.5 cell lines.
(§2) Sodium currents were measured using the patch clamp technique in the whole-cell configuration using either a PatchXpress automated voltage clamp or manually using an Axopatch 200B (Axon Instruments) or Model 2400 (A-M systems) amplifier. The manual voltage clamp protocol was as follows: Borosilicate glass micropipettes were fire-polished to a tip diameter yielding a resistance of 2-4 Mohms in the working solutions. The pipette was filled with a solution comprised of: 5 mM NaCl, 10 mM CsCl, 120 mM CsF, 0.1 mM CaCl2, 2 mM MgCl2, 10 mM HEPES, 10 mM EGTA; and adjusted to pH 7.2 with CsOH. The external solution had the following composition: 140 mM NaCl, 5 mM KCl, 2 mM CaCl2, 1 mM MgCl2, 10 mM HEPES; and adjusted to pH 7.4 with NaOH. In some studies, the external sodium was reduced by equimolar replacement with choline. Osmolarity in the CsF internal and NaCl external solutions was adjusted to 300 mOsm/kg and 310 mOsm/kg with glucose, respectively. All recordings were performed at ambient temperature in a bath chamber with a volume of 150 μL. Control sodium currents were measured in 0.5% DMSO. Controls and representative compounds of the invention were applied to the recording chamber through a 4-pinch or 8-pinch valve bath perfusion system manufactured by ALA Scientific Instruments.
(§3) Series resistance compensation was applied (60-80%). […] All statistics in this study are given as mean±SD.
(§4) The membrane potential was maintained at a voltage where inactivation of the channel is complete (which was −60 mV for both NaV1.7 and NaV1.5). The voltage is then stepped back to a very negative (Vhold=[…]) voltage for 20 ms and then a test pulse is applied to quantify the compound block. […] The percent decrease in sodium current following wash-on of compound was taken as the percent block of sodium channels.
A general note: Patch clamp records ionic current or voltage across a cell membrane.

The next series has as its target T3, human NaV1.7 (Homo sapiens, UniProt Q15858).
T3 construct: permanently transfected with an expression vector containing the full-length cDNA coding for the desired human sodium channel α-subunit; expressed in transfected cells; host or cells: HEK-293
In words: Patch voltage clamp electrophysiology assay (EP), NaV1.7. Conditions: HEK-293 cells stably expressing NaV1.7 with β1 subunit; whole-cell patch clamp, membrane potential −60 mV (inactivated state). The class given is cell-based. On the procedure: as §1, §2, §3, §4

Setting [1] is: human, HEK-293 cells stably expressing human NaV1.5 with β1 subunit, pH 7.4.

Counter-ions that a name gives are not always drawn. Like-named read-outs stand apart in the source and are kept apart here.

T2 sequence (Q14524 whole entry): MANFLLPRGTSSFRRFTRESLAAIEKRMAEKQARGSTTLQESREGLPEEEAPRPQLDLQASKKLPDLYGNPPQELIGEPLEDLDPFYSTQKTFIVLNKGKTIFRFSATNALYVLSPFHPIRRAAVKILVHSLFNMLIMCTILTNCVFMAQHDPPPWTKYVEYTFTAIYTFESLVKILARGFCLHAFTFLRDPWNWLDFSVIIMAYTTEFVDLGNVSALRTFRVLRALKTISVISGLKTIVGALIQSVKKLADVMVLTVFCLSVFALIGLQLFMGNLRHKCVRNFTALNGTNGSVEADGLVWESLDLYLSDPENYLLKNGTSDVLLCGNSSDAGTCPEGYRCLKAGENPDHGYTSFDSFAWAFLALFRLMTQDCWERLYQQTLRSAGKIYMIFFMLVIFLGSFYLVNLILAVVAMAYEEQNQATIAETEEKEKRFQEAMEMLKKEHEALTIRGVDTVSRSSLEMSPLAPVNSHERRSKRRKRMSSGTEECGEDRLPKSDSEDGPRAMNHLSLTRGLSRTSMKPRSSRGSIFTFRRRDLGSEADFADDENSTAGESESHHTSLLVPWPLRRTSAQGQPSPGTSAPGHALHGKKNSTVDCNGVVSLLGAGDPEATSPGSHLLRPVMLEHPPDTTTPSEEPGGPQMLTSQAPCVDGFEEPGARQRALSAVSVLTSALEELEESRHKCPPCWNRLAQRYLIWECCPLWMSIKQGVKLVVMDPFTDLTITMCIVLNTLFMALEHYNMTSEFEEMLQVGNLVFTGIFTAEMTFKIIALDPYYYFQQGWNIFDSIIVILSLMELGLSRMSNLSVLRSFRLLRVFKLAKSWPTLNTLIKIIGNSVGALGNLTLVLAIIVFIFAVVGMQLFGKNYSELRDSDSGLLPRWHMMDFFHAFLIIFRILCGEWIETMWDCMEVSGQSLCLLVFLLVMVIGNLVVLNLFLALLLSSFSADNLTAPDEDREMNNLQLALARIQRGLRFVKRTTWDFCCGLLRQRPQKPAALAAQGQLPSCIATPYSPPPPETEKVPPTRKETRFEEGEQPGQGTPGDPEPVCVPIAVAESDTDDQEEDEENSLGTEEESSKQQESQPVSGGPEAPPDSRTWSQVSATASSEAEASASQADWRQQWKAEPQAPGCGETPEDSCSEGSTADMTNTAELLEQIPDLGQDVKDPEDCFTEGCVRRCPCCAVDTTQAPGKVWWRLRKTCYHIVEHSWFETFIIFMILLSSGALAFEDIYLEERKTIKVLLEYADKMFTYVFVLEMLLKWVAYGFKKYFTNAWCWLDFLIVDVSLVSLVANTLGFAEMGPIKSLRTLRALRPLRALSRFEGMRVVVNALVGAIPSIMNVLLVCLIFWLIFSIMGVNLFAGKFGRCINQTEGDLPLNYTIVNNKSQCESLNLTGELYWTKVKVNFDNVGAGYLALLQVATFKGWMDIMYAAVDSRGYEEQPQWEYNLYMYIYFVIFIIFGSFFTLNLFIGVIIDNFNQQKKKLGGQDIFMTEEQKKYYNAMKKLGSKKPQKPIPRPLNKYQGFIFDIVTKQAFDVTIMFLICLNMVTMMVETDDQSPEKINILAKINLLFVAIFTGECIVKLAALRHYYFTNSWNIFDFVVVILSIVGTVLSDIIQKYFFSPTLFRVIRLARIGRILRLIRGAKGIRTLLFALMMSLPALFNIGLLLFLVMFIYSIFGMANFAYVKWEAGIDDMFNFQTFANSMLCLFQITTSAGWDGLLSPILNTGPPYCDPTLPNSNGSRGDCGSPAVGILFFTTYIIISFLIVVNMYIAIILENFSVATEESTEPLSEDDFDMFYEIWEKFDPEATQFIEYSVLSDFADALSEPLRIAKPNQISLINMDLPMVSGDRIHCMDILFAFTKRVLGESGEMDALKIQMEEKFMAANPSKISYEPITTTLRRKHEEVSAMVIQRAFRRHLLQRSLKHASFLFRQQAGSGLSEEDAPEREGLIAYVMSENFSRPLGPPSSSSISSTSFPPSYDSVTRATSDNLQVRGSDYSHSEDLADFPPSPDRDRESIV
T1 sequence (Q15858 1-1977 isoform Q15858-3): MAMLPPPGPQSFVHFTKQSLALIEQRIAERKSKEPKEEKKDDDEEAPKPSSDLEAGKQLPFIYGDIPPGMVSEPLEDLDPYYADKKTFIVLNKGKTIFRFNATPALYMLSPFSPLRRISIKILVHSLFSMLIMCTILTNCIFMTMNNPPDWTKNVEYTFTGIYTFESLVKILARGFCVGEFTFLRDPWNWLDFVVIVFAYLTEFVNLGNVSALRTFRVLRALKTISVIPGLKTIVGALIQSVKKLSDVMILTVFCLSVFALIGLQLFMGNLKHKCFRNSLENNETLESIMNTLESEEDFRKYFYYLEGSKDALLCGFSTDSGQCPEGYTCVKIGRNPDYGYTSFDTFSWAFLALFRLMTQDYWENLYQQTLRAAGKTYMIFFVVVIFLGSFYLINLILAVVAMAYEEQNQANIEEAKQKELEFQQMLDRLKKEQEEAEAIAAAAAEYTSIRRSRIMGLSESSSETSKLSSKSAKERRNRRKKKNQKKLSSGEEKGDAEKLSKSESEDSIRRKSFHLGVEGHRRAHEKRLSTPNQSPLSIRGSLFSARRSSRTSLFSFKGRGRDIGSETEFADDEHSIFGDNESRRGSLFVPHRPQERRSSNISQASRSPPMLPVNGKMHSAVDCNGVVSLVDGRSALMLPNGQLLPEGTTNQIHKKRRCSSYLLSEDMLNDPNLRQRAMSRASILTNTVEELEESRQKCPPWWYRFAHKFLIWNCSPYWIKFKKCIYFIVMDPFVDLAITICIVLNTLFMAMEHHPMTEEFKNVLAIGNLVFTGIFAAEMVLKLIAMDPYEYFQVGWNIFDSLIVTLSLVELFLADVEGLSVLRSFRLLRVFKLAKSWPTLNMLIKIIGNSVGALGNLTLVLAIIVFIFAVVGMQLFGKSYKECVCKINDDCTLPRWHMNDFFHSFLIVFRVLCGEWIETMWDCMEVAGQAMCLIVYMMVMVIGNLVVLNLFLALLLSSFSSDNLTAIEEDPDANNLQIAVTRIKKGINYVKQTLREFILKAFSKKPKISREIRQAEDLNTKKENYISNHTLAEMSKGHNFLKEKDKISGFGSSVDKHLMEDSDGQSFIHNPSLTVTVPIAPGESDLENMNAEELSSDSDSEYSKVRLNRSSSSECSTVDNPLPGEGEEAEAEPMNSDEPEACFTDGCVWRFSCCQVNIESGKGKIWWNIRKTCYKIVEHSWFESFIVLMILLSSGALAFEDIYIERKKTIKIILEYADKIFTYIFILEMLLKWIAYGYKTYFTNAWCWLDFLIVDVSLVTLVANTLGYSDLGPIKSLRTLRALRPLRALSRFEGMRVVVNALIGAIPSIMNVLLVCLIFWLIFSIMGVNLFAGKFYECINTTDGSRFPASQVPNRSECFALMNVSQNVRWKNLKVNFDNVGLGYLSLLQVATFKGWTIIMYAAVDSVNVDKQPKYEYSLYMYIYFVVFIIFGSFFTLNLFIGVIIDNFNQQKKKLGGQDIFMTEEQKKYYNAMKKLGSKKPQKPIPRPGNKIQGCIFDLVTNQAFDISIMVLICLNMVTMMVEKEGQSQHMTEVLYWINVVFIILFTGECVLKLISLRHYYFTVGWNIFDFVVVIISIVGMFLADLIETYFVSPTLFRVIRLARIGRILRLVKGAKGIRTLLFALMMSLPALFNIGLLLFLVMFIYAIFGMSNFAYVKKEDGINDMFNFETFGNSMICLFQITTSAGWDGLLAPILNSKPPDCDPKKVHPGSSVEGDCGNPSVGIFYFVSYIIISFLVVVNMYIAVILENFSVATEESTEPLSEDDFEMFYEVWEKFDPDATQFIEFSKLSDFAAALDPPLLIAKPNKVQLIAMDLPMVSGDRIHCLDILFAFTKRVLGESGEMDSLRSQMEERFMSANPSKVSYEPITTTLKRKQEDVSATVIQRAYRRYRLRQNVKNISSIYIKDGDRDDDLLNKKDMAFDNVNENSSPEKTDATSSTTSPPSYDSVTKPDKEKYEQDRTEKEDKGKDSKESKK
T1 sequence (Q07699 19-218 partner): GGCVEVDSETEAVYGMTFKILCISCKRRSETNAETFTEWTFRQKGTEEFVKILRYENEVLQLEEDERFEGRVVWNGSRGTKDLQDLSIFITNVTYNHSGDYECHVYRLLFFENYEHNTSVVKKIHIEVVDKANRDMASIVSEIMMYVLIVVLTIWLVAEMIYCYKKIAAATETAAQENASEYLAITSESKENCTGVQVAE
T3 sequence (Q15858 1-1977 isoform Q15858-3): as the sequence (Q15858 1-1977 isoform Q15858-3) above
T3 sequence (Q07699 19-218 partner): as the sequence (Q07699 19-218 partner) above

Consider `O=C(O)[C@@H]1CCCN1C(=O)c1cc(C2CC2)c(OCC2CCN(Cc3nc(-c4ccccc4Cl)no3)CC2)cc1F` [Example 197, (S)-1-(4-((1-((3-(2-chlorophenyl)-1,2,4-oxadiazol-5-yl)methyl)piperidin-4-yl)methoxy)-5-cyclopropyl-2-fluorobenzoyl)pyrrolidine-2-carboxylic acid trifluoroacetate], for which the IC50 on hNav1.7 is 0.63 µM; on NaV1.5 (setting [1]) it was not below 30 µM; against human NaV1.7 it was 3.9 µM.
Turning to `NC(=O)[C@@H]1CCCN1C(=O)c1cc(C2CC2)c(COc2cc(Cl)cc(OC(F)(F)F)c2)cc1F` [Example 188, (5)-1-(4-((3-chloro-5-(trifluoromethoxy)phenoxy)methyl)-5-cyclopropyl-2-fluorobenzoyl)pyrrolidine-2-carboxamide], the IC50 came out at 9.1 µM on hNav1.7, 16 µM at NaV1.5 (read-out: Nav1.5) and 6.6 µM on human NaV1.7.
For `O=C(O)[C@@H]1C[C@@H](F)CN1C(=O)c1cc(C2CC2)c(OCC2(F)CCN(Cc3cc(C(F)(F)F)ccc3Cl)CC2)cc1F` [Example 106, (2S,4R)-1-(4-((1-(2-chloro-5-(trifluoromethyl)benzyl)-4-fluoropiperidin-4-yl)methoxy)-5-cyclopropyl-2-fluorobenzoyl)-4-fluoropyrrolidine-2-carboxylic acid] the same measures were 0.027 µM, 21 µM and 0.13 µM.
For the molecule `C[C@H]1OCN(C(=O)c2cc(C3CC3)c(OCC34CC5CC(CC(C5)C3)C4)cc2F)[C@@H]1C(=O)O` [Example 162, (4S,5R)-3-[4-(1-adamantylmethoxy)-5-cyclopropyl-2-fluoro-benzoyl]-5-methyl-oxazolidine-4-carboxylic acid], the IC50 on hNav1.7 came to 0.0073 µM; on NaV1.5 (read-out: Nav1.5), 5.7 µM; on human NaV1.7, 0.094 µM.
For `O=C(O)[C@@H]1CCN1C(=O)c1cc(C2CC2)c(OCC23CC4CC(CC(C4)C2)C3)cc1F` [Example 86, (S)-1-(4-(adamantan-1-ylmethoxy)-5-cyclopropyl-2-fluorobenzoyl)azetidine-2-carboxylic acid] the same measures were 1.6 µM, 26 µM and 1.9 µM.
As to `C[C@H](c1cc(Cl)cc(Cl)c1)N1CCC(C)(COc2cc(F)c(C(=O)N3C[C@H](F)C[C@H]3C(=O)O)cc2C2CC2)CC1` (single isomer, unassigned) [Example 132b], the values for the IC50 at hNav1.7, on NaV1.5 (setting [1]) and against human NaV1.7 were 0.024 µM, not below 30 µM and 0.43 µM, respectively.
For the molecule `C[C@@H](c1cc(Cl)cc(Cl)c1)N1CCC(COc2cc(F)c(C(=O)N3C[C@H](F)C[C@H]3C(=O)O)cc2C2CC2)CC1` [Example 158, (2S,4R)-1-[5-cyclopropyl-4-[[1-[(1S)-1-(3,5-dichlorophenyl)ethyl]-4-piperidyl]methoxy]-2-fluoro-benzoyl]-4-fluoro-pyrrolidine-2-carboxylic acid], the IC50 on NaV1.5 (setting [1]) was not below 30 µM.
As to `C[C@@H](c1cc(Cl)cc(Cl)c1)N1CCC(COc2cc(F)c(C(=O)N3C[C@H](F)C[C@H]3C(=O)O)cc2C2CC2)CC1` [Example 100], the IC50 on NaV1.5 (read-out: Nav1.5) worked out at 18 µM.
In the case of `C[C@@H]1CC[C@@H](C(=O)O)N1C(=O)c1cc(C2CC2)c(OCC23CC4CC(CC(C4)C2)C3)cc1F` [Example 152, (2S,5R)-1-[4-(1-adamantylmethoxy)-5-cyclopropyl-2-fluoro-benzoyl]-5-methyl-pyrrolidine-2-carboxylic acid], the IC50 on NaV1.5 (read-out: Nav1.5) worked out at 13 µM.
Still for that read-out and setting: then `C[C@H]1CC[C@@H](C(=O)O)N1C(=O)c1cc(C2CC2)c(OCC23CC4CC(CC(C4)C2)C3)cc1F` [Example 153, (2S,5S)-1-[4-(1-adamantylmethoxy)-5-cyclopropyl-2-fluoro-benzoyl]-5-methyl-pyrrolidine-2-carboxylic acid], with 19 µM.
`O=C(O)[C@@H]1C[C@@H](F)CN1C(=O)c1cc(C2CC2)c(OCC23CC4CC(CC(C4)C2)C3)cc1F` [Example 49, (2S,4R)-1-[4-(1-adamantylmethoxy)-5-cyclopropyl-2-fluoro-benzoyl]-4-fluoro-pyrrolidine-2-carboxylic acid]: the IC50 was 0.01 µM on hNav1.7 and 0.23 µM against human NaV1.7.
As to `Nc1noc2ccc(-c3cc(Cl)ccc3Oc3cc(F)c(C(=O)N4CCC[C@H]4C(=O)O)cc3F)cc12` [Example 192, (S)-1-(4-(2-(3-aminobenzo[d]isoxazol-5-yl)-4-chlorophenoxy)-2,5-difluorobenzoyl)pyrrolidine-2-carboxylic acid trifluoroacetate], the IC50 on hNav1.7 was not below 10 µM; against NaV1.5 (setting [1]) it was not below 30 µM.
For `O=C(O)[C@@H]1CCCN1C(=O)c1cc(C2CC2)c(O[C@H]2CCCN(Cc3ccc(F)cc3Cl)C2)cc1F` [Example 95, (S)-1-(4-(((S)-1-(2-chloro-4-fluorobenzyl)piperidin-3-yl)oxy)-5-cyclopropyl-2-fluorobenzoyl)pyrrolidine-2-carboxylic acid], the IC50 at hNav1.7 is not below 10 µM; against NaV1.5 (setting [1]) it was not below 30 µM.
With `CN(CC(=O)O)C(=O)c1cc(C2CC2)c(OCC23CC4CC(CC(C4)C2)C3)cc1F` [Example 45, 2-(4-(adamantan-1-ylmethoxy)-5-cyclopropyl-2-fluoro-N-methylbenzamido)acetic acid], the figures for the IC50 at hNav1.7 and at human NaV1.7 were 8.4 µM and 11.7 µM, respectively.
On the same counts, the results for `O=C(O)[C@@H]1CC(F)(F)CN1C(=O)c1cc(C2CC2)c(OCC23CC4CC(CC(C4)C2)C3)cc1F` [Example 48, (2S)-1-[4-(1-adamantylmethoxy)-5-cyclopropyl-2-fluoro-benzoyl]-4,4-difluoro-pyrrolidine-2-carboxylic acid] are 0.04 µM and 0.64 µM.
For `O=C(O)[C@H]1C[C@@H](O)CN1C(=O)c1cc(C2CC2)c(OCC23CC4CC(CC(C4)C2)C3)cc1F` [Example 47, (2R,4R)-1-[4-(1-adamantylmethoxy)-5-cyclopropyl-2-fluoro-benzoyl]-4-hydroxy-pyrrolidine-2-carboxylic acid] the same measures were not below 10 µM and 16 µM.
